The term IC50 denotes the concentration that gives 50% inhibition.

The target of this assay is human Nav1.7 (Homo sapiens (Human), UniProt Q15858). The assay is described as follows: FLIPR or FLIPR TETRA sodium dye assay with KCl and test article pre-incubation. Format: cell-based. Particulars: sodium dye assay with KCl; recombinant Nav1.7/HEK293 cells; read-out: Nav1.7 IC50 (μM) ± SEM.
human Nav1.7, sequence (Q15858 other isoform, or with tags, fused parts or gaps): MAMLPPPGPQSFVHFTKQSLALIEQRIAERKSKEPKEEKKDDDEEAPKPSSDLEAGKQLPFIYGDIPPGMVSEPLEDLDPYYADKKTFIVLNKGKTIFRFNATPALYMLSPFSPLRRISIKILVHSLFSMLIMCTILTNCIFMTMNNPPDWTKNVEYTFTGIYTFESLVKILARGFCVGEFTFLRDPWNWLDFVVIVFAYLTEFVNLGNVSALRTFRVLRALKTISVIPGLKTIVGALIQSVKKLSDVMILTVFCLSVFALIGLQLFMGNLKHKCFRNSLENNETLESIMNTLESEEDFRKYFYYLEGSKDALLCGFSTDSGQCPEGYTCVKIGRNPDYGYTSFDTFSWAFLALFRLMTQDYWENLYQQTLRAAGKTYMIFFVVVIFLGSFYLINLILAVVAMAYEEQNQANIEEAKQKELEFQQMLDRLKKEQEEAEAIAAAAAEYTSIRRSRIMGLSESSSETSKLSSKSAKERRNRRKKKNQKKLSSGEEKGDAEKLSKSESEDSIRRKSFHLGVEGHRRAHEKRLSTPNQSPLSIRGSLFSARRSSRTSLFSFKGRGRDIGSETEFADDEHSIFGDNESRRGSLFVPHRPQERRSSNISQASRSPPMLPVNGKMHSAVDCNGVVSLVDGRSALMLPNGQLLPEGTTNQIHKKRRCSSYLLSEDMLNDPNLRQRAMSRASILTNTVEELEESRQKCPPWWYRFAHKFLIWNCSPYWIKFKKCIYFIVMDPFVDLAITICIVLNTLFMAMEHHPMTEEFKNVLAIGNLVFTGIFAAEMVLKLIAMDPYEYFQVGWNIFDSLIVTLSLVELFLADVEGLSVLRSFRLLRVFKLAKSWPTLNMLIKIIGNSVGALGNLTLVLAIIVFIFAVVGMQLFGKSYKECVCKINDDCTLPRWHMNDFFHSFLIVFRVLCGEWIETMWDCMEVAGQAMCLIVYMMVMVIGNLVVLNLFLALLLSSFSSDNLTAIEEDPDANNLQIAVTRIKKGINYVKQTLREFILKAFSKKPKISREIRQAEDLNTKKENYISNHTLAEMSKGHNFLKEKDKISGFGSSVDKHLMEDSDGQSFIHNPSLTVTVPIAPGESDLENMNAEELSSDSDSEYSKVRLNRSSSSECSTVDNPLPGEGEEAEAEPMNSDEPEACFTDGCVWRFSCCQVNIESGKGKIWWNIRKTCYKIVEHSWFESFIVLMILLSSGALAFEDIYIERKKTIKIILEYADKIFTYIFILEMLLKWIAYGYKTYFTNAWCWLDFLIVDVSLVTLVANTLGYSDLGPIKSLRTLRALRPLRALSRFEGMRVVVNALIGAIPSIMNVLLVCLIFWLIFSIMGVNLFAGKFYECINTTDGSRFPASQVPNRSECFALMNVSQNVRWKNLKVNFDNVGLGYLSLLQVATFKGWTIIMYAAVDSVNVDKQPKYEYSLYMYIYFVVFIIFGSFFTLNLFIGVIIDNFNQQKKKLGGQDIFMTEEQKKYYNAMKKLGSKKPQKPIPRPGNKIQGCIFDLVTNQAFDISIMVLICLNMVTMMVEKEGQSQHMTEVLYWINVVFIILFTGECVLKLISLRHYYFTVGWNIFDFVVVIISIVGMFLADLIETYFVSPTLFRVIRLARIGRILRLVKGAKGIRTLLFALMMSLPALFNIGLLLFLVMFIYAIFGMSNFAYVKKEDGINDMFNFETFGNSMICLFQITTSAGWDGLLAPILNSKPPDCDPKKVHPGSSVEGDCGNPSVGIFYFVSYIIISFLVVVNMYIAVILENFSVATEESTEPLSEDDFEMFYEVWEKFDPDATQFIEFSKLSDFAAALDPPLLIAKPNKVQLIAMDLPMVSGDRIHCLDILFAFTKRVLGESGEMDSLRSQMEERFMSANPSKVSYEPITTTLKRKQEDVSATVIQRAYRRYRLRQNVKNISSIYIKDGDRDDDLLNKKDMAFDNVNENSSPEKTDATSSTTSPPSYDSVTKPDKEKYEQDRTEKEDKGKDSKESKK
Regarding `O=C(c1cccc(-c2ccc(Oc3ccc(F)cc3)cc2)n1)N1CCN(S(=O)(=O)c2ccc(OC(F)(F)F)cc2)CC1` [Compound 7, (6-(4-(4-fluorophenoxy)phenyl)pyridin-2-yl)(4-((4-(trifluoromethoxy)phenyl)sulfonyl)piperazin-1-yl)methanone], the IC50 was 0.19 ± 0.05 µM. For `CS(=O)(=O)c1cccc(S(=O)(=O)N2CCN(C(=O)c3cccc(-c4ccc(Oc5ccc(F)cc5)cc4)n3)CC2)c1` [Compound 8, (6-(4-(4-fluorophenoxy)phenyl)pyridin-2-yl)(4-((3-(methylsulfonyl)phenyl)sulfonyl)piperazin-1-yl)methanone] the value was 0.78 ± 0.17 µM; for `N#Cc1cccc(S(=O)(=O)N2CCN(C(=O)c3cccc(-c4ccc(Oc5ccc(F)cc5)cc4)n3)CC2)c1` [Compound 10, 3-((4-(6(4-(4-fluorophenoxy)phenyl)picolinoyl)piprazin-1-yl)sulfonyl)benzonitrile], 0.43 ± 0.11 µM.

On to `CN(C)S(=O)(=O)N1CCN(C(=O)c2cccc(-c3ccc(Oc4ccc(F)cc4)cc3)n2)CC1` [Compound 11, 4-(6-(4-(4-fluorophenoxy)phenyl)picolinoyl)-N,N-dimethyl-piperazine-1-sulfonamide], for which the IC50 was 1.01 ± 0.09 µM. For `CC1(C)C2CCC1(CS(=O)(=O)N1CCN(C(=O)c3cccc(-c4ccc(Oc5ccc(F)cc5)cc4)n3)CC1)C(=O)C2` (centres unmarked) [Compound 12, 1-(((4-(6-(4-(4-fluorophenoxy)phenyl)picolinoyl)piperazin-1-yl)sulfonyl)methyl)-7,7-dimethylbicyclo[2.2.1]heptan-2-one] the value was 0.14 ± 0.04 µM; for `CS(=O)(=O)N1CCN(C(=O)c2cccc(-c3ccc(Oc4ccc(F)cc4)cc3)n2)CC1` [Compound 13, (6-(4-(4-fluorophenoxy)phenyl)pyridin-2-yl)(4-(methylsulfonyl)piperazin-1-yl)methanone], 1.31 ± 0.18 µM; for `Cc1noc(C)c1S(=O)(=O)N1CCN(C(=O)c2cccc(-c3ccc(Oc4ccc(F)cc4)cc3)n2)CC1` [Compound 14, (4-((3,5-dimethylisoxazol-4-yl)sulfonyl)piperazin-1-yl)(6-(4-(4-fluorophenoxy)phenyl)pyridin-2-yl)methanone], 0.22 ± 0.04 µM.

For the compound `O=C(c1cccc(-c2ccc(Oc3ccc(F)cc3)cc2)n1)N1CCN(S(=O)(=O)c2cccnc2)CC1` [Compound 15, (6-(4-(4-fluorophenoxy)phenyl)pyridin-2-yl)(4-(pyridin-3-ylsulfonyl)piperazin-1-yl)methanone], the IC50 stood at 0.42 ± 0.04 µM.

On to `O=C(c1cccc(-c2ccc(Oc3ccc(F)cc3)cc2)n1)N1CCN(S(=O)(=O)c2cccc(OC(F)(F)F)c2)CC1` [Compound 16], for which the IC50 stood at 0.32 ± 0.09 µM. As to `N#Cc1ccc(S(=O)(=O)N2CCN(C(=O)c3cccc(-c4ccc(Oc5ccc(F)cc5)cc4)n3)CC2)cc1` [Compound 17, 4-((4-(6-(4-(4-fluorophenoxy)phenyl)picolinoyl)piperazin-1-yl)sulfonyl)benzonitrile], the IC50 was found to be 0.97 ± 0.13 µM. Turning to `O=C(O)c1cccc(S(=O)(=O)N2CCN(C(=O)c3cccc(-c4ccc(Oc5ccc(F)cc5)cc4)n3)CC2)c1` [Compound 18, 3-((4-(6-(4-(4-fluorophenoxy)phenyl)picolinoyl)piperazin-1-yl)sulfonyl)benzoic acid], the IC50 is 3.48 ± 0.72 µM. For `O=C(O)c1ccc(S(=O)(=O)N2CCN(C(=O)c3cccc(-c4ccc(Oc5ccc(F)cc5)cc4)n3)CC2)cc1` [Compound 19, 4-((4-(6-(4-(4-fluorophenoxy)phenyl)picolinoyl)piperazin-1-yl)sulfonyl)benzoic acid] the value was 4.81 ± 0.18 µM. Regarding `CS(=O)(=O)NCCNC(=O)c1cccc(-c2ccc(Oc3ccc(F)cc3)cc2)n1` [Compound 21, 6-(4-(4-fluorophenoxy)phenyl)-N-(2-(methylsulfonamido)ethyl)picolinamide], the IC50 was determined as 0.39 ± 0.08 µM. For `CS(=O)(=O)c1cccc(S(=O)(=O)NCCNC(=O)c2cccc(-c3ccc(Oc4ccc(F)cc4)cc3)n2)c1` [Compound 23, 6-(4-(4-fluorophenoxy)phenyl)-N-(2-(3-(methylsulfonyl)phenylsulfonamido)ethyl)picolinamide] the value was 0.39 ± 0.03 µM.

The values above are taken from patent US9120752B2, “Pyridine compounds as sodium channel blockers” (Purdue Pharma, L.P., priority 2010, dated 2015).
